Assay results as given in patent US11066414B2, “Cot modulators and methods of use thereof” (Gilead Sciences, Inc., priority 2015, dated 2021).
Like-named read-outs stand apart in the source and are kept apart here.

Assays:
TNFα = assay: Cot Monocyte TNFα Cell Based Assay
Human Cot = Human Cot (Homo sapiens (Human), UniProt P41279); assay: High Throughput Cot Biochemical Assay; details: Cot HTRF (TR-FRET) biochemical assay
[1] = read-out: EC50 TNF, LPS-stimulated human monocytes, TNFα
[2] = Homo sapiens, Monocyte, read-out: EC50 TNF, LPS-stimulated human monocytes, TNFα

Sequence of Human Cot (P41279 30-397): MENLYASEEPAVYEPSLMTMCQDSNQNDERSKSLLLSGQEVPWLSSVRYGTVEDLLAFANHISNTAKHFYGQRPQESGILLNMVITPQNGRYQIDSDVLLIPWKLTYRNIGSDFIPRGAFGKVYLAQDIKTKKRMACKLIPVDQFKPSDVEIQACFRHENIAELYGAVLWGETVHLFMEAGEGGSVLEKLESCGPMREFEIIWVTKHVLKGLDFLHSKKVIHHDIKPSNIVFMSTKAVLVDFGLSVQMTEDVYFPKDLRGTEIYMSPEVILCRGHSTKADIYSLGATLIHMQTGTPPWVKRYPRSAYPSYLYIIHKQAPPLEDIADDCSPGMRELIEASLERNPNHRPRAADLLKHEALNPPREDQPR

Row | EC50 (TNFα; [1]) [nM] | IC50 (Human Cot; read-out: IC50 HTRF) [nM] | EC50 (TNFα; [2]) [nM] | IC50 (Human Cot; IC50 HTRF) [nM] | Compound
1 | > 10000 | > 10000 |  |  | N#Cc1cnc2c(Cl)cc(N[C@@H](c3cocn3)c3c[nH]nn3)cc2c1N[C@@H](CO)c1ccccc1 [Example 214, 8-chloro-4-(((R)-2-hydroxy-1-phenylethyl)amino)-6-(((S)-o)(azol-4-yl(1H-1,2,3-triazol-4-yl)methyl)amino)quinoline-3-carbonitrile]
2 | > 10000 | 258 |  |  | N#Cc1cnc2c(Cl)cc(N[C@@H](c3cocn3)c3c[nH]nn3)cc2c1N[C@H](CO)c1ccccc1 [Example 215, 8-chloro-4-(((S)-2-hydroxy-1-phenylethyl)amino)-6-(((S)-o)(azol-4-yl(1H-1,2,3-triazol-4-yl)methyl)amino)quinoline-3-carbonitrile]
3 |  |  | 1190 | 38 | Cn1nccc1[C@H](Nc1cc(Cl)c2ncc(C#N)c(Nc3ccc(Cl)c(Cl)c3F)c2c1)c1c[nH]nn1 [Example 216, (S)-8-chloro-4-((3,4-dichloro-2-fluorophenyl)amino)-6-(((1-methyl-1H-pyrazol-5-yl)(1H-1,2,3-triazol-4-yl)methyl)amino)quinoline-3-carbonitrile]
4 |  |  | 2710 | 26 | Cc1ncccc1[C@H](Nc1cc(Cl)c2ncc(C#N)c(N[C@H](CO)c3ccccc3)c2c1)c1c[nH]nn1 [Example 218, 8-chloro-4-(((S)-2-hydroxy-1-phenylethyl)amino)-6-(((S)-(2-methylpyridin-3-yl)(1H-1,2,3-triazol-4-yl)methyl)amino)quinoline-3-carbonitrile]
5 |  |  | > 10000 | 4450 | Cc1ncccc1[C@H](Nc1cc(Cl)c2ncc(C#N)c(N[C@@H](CO)c3ccccc3)c2c1)c1c[nH]nn1 [Example 219, 8-chloro-4-(((R)-2-hydroxy-1-phenylethyl)amino)-6-(((S)-(2-methylpyridin-3-yl)(1H-1,2,3-triazol-4-yl)methyl)amino)quinoline-3-carbonitrile]
6 |  |  | 348 | 4 | CC[C@@H](Nc1c(C#N)cnc2c(Cl)cc(N[C@H](c3c[nH]nn3)c3cccnc3C)cc12)c1ccccc1 [Example 220, 8-chloro-6-(((S)-(2-methylpyridin-3-yl)(1H-1,2,3-triazol-4-yl)methyl)amino)-4-(((R)-1-phenylpropyl)amino)quinoline-3-carbonitrile]
7 |  |  | 28 | 2 | CC[C@@H](Nc1c(C#N)cnc2c(Cl)cc(N[C@H](c3cn(C4CCN(C(C)(C)C)CC4)nn3)c3cccnc3C)cc12)c1ccccc1 [Example 221, 6-(((S)-(1-(1-(tert-butyl)piperidin-4-yl)-1H-1,2,3-triazol-4-yl)(2-methylpyridin-3-yl)methyl)amino)-8-chloro-4-(((R)-1-phenylpropyl)amino)quinoline-3-carbonitrile]
8 |  |  | 739 | 19 | N#Cc1cnc2c(Cl)cc(N[C@H](c3c[nH]nn3)c3csc4c3CCN(C3COC3)C4)cc2c1Nc1ccc(Cl)c(Cl)c1F [Example 222, (S)-8-chloro-4-((3,4-dichloro-2-fluorophenyl)amino)-6-(((6-(oxetan-3-yl)-4,5,6,7-tetrahydrothieno[2,3-c]pyridin-3-yl)(1H-1,2,3-triazol-4-yl)methyl)amino)quinoline-3-carbonitrile]
9 |  |  | 94 | 7 | CC(C)(C)N1CCC(n2cc([C@@H](Nc3cc(Cl)c4ncc(C#N)c(Nc5ccc(Cl)c(Cl)c5F)c4c3)c3csc4c3CCN(C3COC3)C4)nn2)CC1 [Example 223, (S)-6-(((1-(1-(tert-butyl)piperidin-4-yl)-1H-1,2,3-triazol-4-yl)(6-(oxetan-3-yl)-4,5,6,7-tetrahydrothieno[2,3-c]pyridin-3-yl)methyl)amino)-8-chloro-4-((3,4-dichloro-2-fluorophenyl)amino)quinoline-3-carbonitrile]
10 |  |  | 1490 | 10 | Cc1ncccc1[C@H](Nc1cc(Cl)c2ncc(C#N)c(Nc3cccc(Cl)c3)c2c1)c1cn(C(C)C)nn1 [Example 225, (S)-8-chloro-4-((3-chlorophenyl)amino)-6-(((1-isopropyl-1H-1,2,3-triazol-4-yl)(2-methylpyridin-3-yl)methyl)amino)quinoline-3-carbonitrile]
11 |  |  | 880 | 8 | Cc1ncccc1[C@H](Nc1cc(Cl)c2ncc(C#N)c(Nc3cccc(Cl)c3)c2c1)c1cn(C2CCN(C(C)(C)C)CC2)nn1 [Example 226, (S)-6-(((1-(1-(tert-butyl)piperidin-4-yl)-1H-1,2,3-triazol-4-yl)(2-methylpyridin-3-yl)methyl)amino)-8-chloro-4-((3-chlorophenyl)amino)quinoline-3-carbonitrile]
12 |  |  | 6420 | 44 | Cc1ncccc1[C@H](Nc1cc(Cl)c2ncc(C#N)c(Nc3ccc(Cl)c(Cl)c3F)c2c1)c1c[nH]nn1 [Example 227, (S)-8-chloro-4-((3,4-dichloro-2-fluorophenyl)amino)-6-(((2-methylpyridin-3-yl)(1H-1,2,3-triazol-4-yl)methyl)amino)-quinoline-3-carbonitrile]
13 |  |  | 2310 | 18 | Cc1cncc([C@H](Nc2cc(Cl)c3ncc(C#N)c(Nc4ccc(F)c(Cl)c4)c3c2)c2cn(C(C)C)nn2)c1 [Example 228, (S)-8-chloro-4-((3-chloro-4-fluorophenyl)amino)-6-(((1-isopropyl-1H-1,2,3-triazol-4-yl)(5-methylpyridin-3-yl)methyl)amino)quinoline-3-carbonitrile]
14 |  |  | 252 | 9 | Cc1ncccc1[C@H](Nc1cc(Cl)c2ncc(C#N)c(N[C@H](C)c3ccccc3)c2c1)c1cn(C(C)C)nn1 [Example 230, 8-chloro-6-(((S)-(1-isopropyl-1H-1,2,3-triazol-4-yl)(2-methylpyridin-3-yl)methyl)amino)-4-(((R)-1-phenylethyl)amino)quinoline-3-carbonitrile]
15 |  |  | 114 | 8 | Cc1ncccc1[C@H](Nc1cc(Cl)c2ncc(C#N)c(Nc3ccc(Cl)c(Cl)c3F)c2c1)c1cn(C2CCN(C(C)(C)C)CC2)nn1 [Example 233, (S)-6-(((1-(1-(tert-butyl)piperidin-4-yl)-1H-1,2,3-triazol-4-yl)(2-methylpyridin-3-yl)methyl)amino)-8-chloro-4-((3,4-dichloro-2-fluorophenyl)amino)quinoline-3-carbonitrile]
16 |  |  | 504 | 21 | Cc1ncsc1[C@H](Nc1cc(Cl)c2ncc(C#N)c(Nc3ccc(Cl)c(Cl)c3F)c2c1)c1c[nH]nn1 [Example 234, (R)-8-chloro-4-((3,4-dichloro-2-fluorophenyl)amino)-6-(((4-methylthiazol-5-yl)(1H-1,2,3-triazol-4-yl)methyl)amino)quinoline-3-carbonitrile]
17 |  |  | 370 | 17 | Cc1ncsc1[C@H](Nc1cc(Cl)c2ncc(C#N)c(Nc3ccc(Cl)c(Cl)c3F)c2c1)c1cn(C(C)C)nn1 [Example 235, (R)-8-chloro-4-((3,4-dichloro-2-fluorophenyl)amino)-6-(((1-isopropyl-1H-1,2,3-triazol-4-yl)(4-methylthiazol-5-yl)methyl)amino)quinoline-3-carbonitrile]
18 |  |  | 172 | 9 | Cc1ncsc1[C@H](Nc1cc(Cl)c2ncc(C#N)c(Nc3ccc(Cl)c(Cl)c3F)c2c1)c1cn(C2CCN(C(C)(C)C)CC2)nn1 [Example 236, (R)-6-(((1-(1-(tert-butyl)piperidin-4-yl)-1H-1,2,3-triazol-4-yl)(4-methylthiazol-5-yl)methyl)amino)-8-chloro-4-((3,4-dichloro-2-fluorophenyl)amino)quinoline-3-carbonitrile]
19 | 29 | 1 |  |  | C[C@@H](Nc1c(C#N)cnc2c(Cl)cc(N[C@H](c3cn(C4CCN(C(C)(C)C)CC4)nn3)c3csc4c3CCN(C3COC3)C4)cc12)c1ccccc1 [Example 237]
20 |  |  | 901 | 3 | C[C@@H](Nc1c(C#N)cnc2c(Cl)cc(N[C@H](c3c[nH]nn3)c3csc4c3CCN(C3COC3)C4)cc12)c1ccccc1 [Example 238, 8-chloro-6-(((S)-(6-(oxetan-3-yl)-4,5,6,7-tetrahydrothieno[2,3-c]pyridin-3-yl)(1H-1,2,3-triazol-4-yl)methyl)amino)-4-(((R)-1-phenylethyl)amino)quinoline-3-carbonitrile]
21 |  |  | 928 | 16 | Cc1ncsc1[C@H](Nc1cc(Cl)c2ncc(C#N)c(N[C@H](C)c3ccccc3)c2c1)c1cn(C(C)C)nn1 [Example 239, 8-chloro-6-(((R)-(1-isopropyl-1H-1,2,3-triazol-4-yl)(4-methylthiazol-5-yl)methyl)amino)-4-(((R)-1-phenylethyl)amino)quinoline-3-carbonitrile]
22 |  |  | 631 | 16 | Cc1ncsc1[C@H](Nc1cc(Cl)c2ncc(C#N)c(N[C@H](C)c3ccccc3)c2c1)c1cn(C2CCN(C(C)(C)C)CC2)nn1 [Example 240, 6-(((R)-(1-(1-(tert-butyl)piperidin-4-yl)-1H-1,2,3-triazol-4-yl)(4-methylthiazol-5-yl)methyl)amino)-8-chloro-4-(((R)-1-phenylethyl)amino)quinoline-3-carbonitrile]
23 |  |  | 32 | 2 | CC(C)(C)N1CCC(n2cc([C@@H](Nc3cc(Cl)c4ncc(C#N)c(Nc5cccc(Cl)c5F)c4c3)c3csc4c3CCN(C3COC3)C4)nn2)CC1 [Example 241, (S)-6-(((1-(1-(tert-butyl)piperidin-4-yl)-1H-1,2,3-triazol-4-yl)(6-(oxetan-3-yl)-4,5,6,7-tetrahydrothieno[2,3-c]pyridin-3-yl)methyl)amino)-8-chloro-4-((3-chloro-2-fluorophenyl)amino)-quinoline-3-carbonitrile]
24 | 5800 | 143 |  |  | N#Cc1cnc2c(Cl)cc(N[C@@H](c3cocn3)c3cn(C4CCN(C5COC5)CC4)nn3)cc2c1Nc1ccc(Cl)c(Cl)c1F [Example 242, (S)-8-chloro-4-((3,4-dichloro-2-fluorophenyl)amino)-6-((o)(azol-4-yl(1-(1-(oxetan-3-yl)piperidin-4-yl)-1H-1,2,3-triazol-4-yl)methyl)amino)quinoline-3-carbonitrile]
